{"source": "ChEMBL document CHEMBL1201862", "about": "“PubChem BioAssay data set” (2004)", "assay_in_all_cases": "NCI tumour cell line growth inhibition, 48 h", "key": {"SF-268": {"tested_on": "SF-268"}, "SK-OV-3": {"tested_on": "SK-OV-3"}, "NCI/ADR-RES": {"tested_on": "NCI/ADR-RES"}, "UACC-62": {"tested_on": "UACC-62"}, "A498": {"tested_on": "A498"}, "NCI-H226": {"tested_on": "NCI-H226"}, "K562": {"tested_on": "K562"}, "SF-539": {"tested_on": "SF-539"}, "COLO 205": {"tested_on": "COLO 205"}, "T47D": {"tested_on": "T47D"}, "SR": {"tested_on": "SR"}, "Hs-578T": {"tested_on": "Hs-578T"}, "KM12": {"tested_on": "KM12"}, "UACC-257": {"tested_on": "UACC-257"}, "HT-29": {"tested_on": "HT-29"}, "M14": {"tested_on": "M14"}, "SW-620": {"tested_on": "SW-620"}, "OVCAR-8": {"tested_on": "OVCAR-8"}, "MDA-MB-435": {"tested_on": "MDA-MB-435"}}, "note": "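Test compounds were applied to cells in 96-well plates for 48 hours at 5 doses. GI50 = concentration required for 50% inhibition of growth.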 Active and inactive are the calls of the source. No stated cut-off is given here; in the data, active = GI50 up to about 1.1 µM and inactive = higher."}
{"compound": "c1ccc2c(c1)Nc1ccccc1[P+]21c2ccccc2Nc2ccccc21", "values": [{"measurement": "GI50", "setting": "SF-268", "value": "0.383 µM (active)"}, {"measurement": "GI50", "setting": "SK-OV-3", "value": "0.267 µM (active)"}, {"measurement": "GI50", "setting": "NCI/ADR-RES", "value": "69.2 µM (inactive)"}, {"measurement": "GI50", "setting": "UACC-62", "value": "0.143 µM (active)"}, {"measurement": "GI50", "setting": "A498", "value": "0.318 µM (active)"}, {"measurement": "GI50", "setting": "NCI-H226", "value": "0.0964 µM (active)"}, {"measurement": "GI50", "setting": "K562", "value": "0.212 µM (active)"}, {"measurement": "GI50", "setting": "SF-539", "value": "0.156 µM (active)"}, {"measurement": "GI50", "setting": "COLO 205", "value": "0.048 µM (active)"}, {"measurement": "GI50", "setting": "T47D", "value": "0.11 µM (active)"}, {"measurement": "GI50", "setting": "SR", "value": "0.238 µM (active)"}, {"measurement": "GI50", "setting": "Hs-578T", "value": "0.0723 µM (active)"}, {"measurement": "GI50", "setting": "KM12", "value": "0.0845 µM (active)"}, {"measurement": "GI50", "setting": "UACC-257", "value": "0.214 µM (active)"}, {"measurement": "GI50", "setting": "HT-29", "value": "0.0853 µM (active)"}, {"measurement": "GI50", "setting": "M14", "value": "0.351 µM (active)"}, {"measurement": "GI50", "setting": "SW-620", "value": "0.279 µM (active)"}, {"measurement": "GI50", "setting": "OVCAR-8", "value": "0.368 µM (active)"}, {"measurement": "GI50", "setting": "MDA-MB-435", "value": "0.284 µM (active)"}]}
{"compound": "Nc1ccc(Oc2ccc(C34CC5CC6C3CC3CC4C(C5)C6(c4ccc(Oc5ccc(N)c(O)c5)cc4)C3)cc2)cc1O", "values": [{"measurement": "GI50", "setting": "SF-268", "value": "3.33 µM (inactive)"}, {"measurement": "GI50", "setting": "SK-OV-3", "value": "10.1 µM (inactive)"}, {"measurement": "GI50", "setting": "NCI/ADR-RES", "value": "3.1 µM (inactive)"}, {"measurement": "GI50", "setting": "UACC-62", "value": "10.1 µM (inactive)"}, {"measurement": "GI50", "setting": "A498", "value": "7.36 µM (inactive)"}, {"measurement": "GI50", "setting": "NCI-H226", "value": "3.52 µM (inactive)"}, {"measurement": "GI50", "setting": "K562", "value": "2.79 µM (inactive)"}, {"measurement": "GI50", "setting": "SF-539", "value": "0.0255 µM (active)"}, {"measurement": "GI50", "setting": "COLO 205", "value": "1.31 µM (inactive)"}, {"measurement": "GI50", "setting": "T47D", "value": "0.652 µM (active)"}, {"measurement": "GI50", "setting": "SR", "value": "1.62 µM (inactive)"}, {"measurement": "GI50", "setting": "Hs-578T", "value": "17.2 µM (inactive)"}, {"measurement": "GI50", "setting": "KM12", "value": "3.69 µM (inactive)"}, {"measurement": "GI50", "setting": "UACC-257", "value": "3.64 µM (inactive)"}, {"measurement": "GI50", "setting": "HT-29", "value": "3.59 µM (inactive)"}, {"measurement": "GI50", "setting": "M14", "value": "2.27 µM (inactive)"}, {"measurement": "GI50", "setting": "SW-620", "value": "4.25 µM (inactive)"}, {"measurement": "GI50", "setting": "OVCAR-8", "value": "0.67 µM (active)"}, {"measurement": "GI50", "setting": "MDA-MB-435", "value": "3.83 µM (inactive)"}]}
{"compound": "CC1(C)C2CC1C(/C=N\\OCC(=O)O)=CC2=O", "note": "(centres undefined)", "values": [{"measurement": "GI50", "setting": "SF-268", "value": "> 100 µM (inactive)"}, {"measurement": "GI50", "setting": "SK-OV-3", "value": "> 100 µM (inactive)"}, {"measurement": "GI50", "setting": "NCI/ADR-RES", "value": "> 100 µM (inactive)"}, {"measurement": "GI50", "setting": "UACC-62", "value": "> 100 µM (inactive)"}, {"measurement": "GI50", "setting": "A498", "value": "> 100 µM (inactive)"}, {"measurement": "GI50", "setting": "NCI-H226", "value": "> 100 µM (inactive)"}, {"measurement": "GI50", "setting": "K562", "value": "> 100 µM (inactive)"}, {"measurement": "GI50", "setting": "SF-539", "value": "> 100 µM (inactive)"}, {"measurement": "GI50", "setting": "COLO 205", "value": "> 100 µM (inactive)"}, {"measurement": "GI50", "setting": "T47D", "value": "> 100 µM (inactive)"}, {"measurement": "GI50", "setting": "SR", "value": "> 100 µM (inactive)"}, {"measurement": "GI50", "setting": "Hs-578T", "value": "> 100 µM (inactive)"}, {"measurement": "GI50", "setting": "KM12", "value": "> 100 µM (inactive)"}, {"measurement": "GI50", "setting": "UACC-257", "value": "> 100 µM (inactive)"}, {"measurement": "GI50", "setting": "HT-29", "value": "> 100 µM (inactive)"}, {"measurement": "GI50", "setting": "M14", "value": "> 100 µM (inactive)"}, {"measurement": "GI50", "setting": "SW-620", "value": "> 100 µM (inactive)"}, {"measurement": "GI50", "setting": "OVCAR-8", "value": "> 100 µM (inactive)"}, {"measurement": "GI50", "setting": "MDA-MB-435", "value": "> 100 µM (inactive)"}]}
{"compound": "CCOC(=O)CC[C@H](N)C(=O)N[C@@H](Cc1ccc(N(CCCl)CCCl)cc1)C(=O)OCC", "values": [{"measurement": "GI50", "setting": "SF-268", "value": "0.711 µM (active)"}, {"measurement": "GI50", "setting": "SK-OV-3", "value": "1.48 µM (inactive)"}, {"measurement": "GI50", "setting": "NCI/ADR-RES", "value": "1.52 µM (inactive)"}, {"measurement": "GI50", "setting": "UACC-62", "value": "0.256 µM (active)"}, {"measurement": "GI50", "setting": "A498", "value": "17.7 µM (inactive)"}, {"measurement": "GI50", "setting": "NCI-H226", "value": "11.1 µM (inactive)"}, {"measurement": "GI50", "setting": "K562", "value": "0.895 µM (active)"}, {"measurement": "GI50", "setting": "SF-539", "value": "0.706 µM (active)"}, {"measurement": "GI50", "setting": "COLO 205", "value": "0.938 µM (active)"}, {"measurement": "GI50", "setting": "T47D", "value": "0.718 µM (active)"}, {"measurement": "GI50", "setting": "SR", "value": "< 0.0201 µM (active)"}, {"measurement": "GI50", "setting": "Hs-578T", "value": "2.16 µM (inactive)"}, {"measurement": "GI50", "setting": "KM12", "value": "4.61 µM (inactive)"}, {"measurement": "GI50", "setting": "UACC-257", "value": "1.5 µM (inactive)"}, {"measurement": "GI50", "setting": "HT-29", "value": "1.1 µM (active)"}, {"measurement": "GI50", "setting": "M14", "value": "0.261 µM (active)"}, {"measurement": "GI50", "setting": "SW-620", "value": "0.977 µM (active)"}, {"measurement": "GI50", "setting": "OVCAR-8", "value": "0.891 µM (active)"}, {"measurement": "GI50", "setting": "MDA-MB-435", "value": "1.39 µM (inactive)"}]}
{"compound": "CCn1c(-c2ccc(OC(C)=O)cc2)c(C)c2cc(OC(C)=O)ccc21", "note": "[ZINDOXIFENE]", "values": [{"measurement": "GI50", "setting": "SF-268", "value": "16.6 µM (inactive)"}, {"measurement": "GI50", "setting": "SK-OV-3", "value": "23.1 µM (inactive)"}, {"measurement": "GI50", "setting": "NCI/ADR-RES", "value": "24.9 µM (inactive)"}, {"measurement": "GI50", "setting": "UACC-62", "value": "13.2 µM (inactive)"}, {"measurement": "GI50", "setting": "A498", "value": "23.6 µM (inactive)"}, {"measurement": "GI50", "setting": "NCI-H226", "value": "30.1 µM (inactive)"}, {"measurement": "GI50", "setting": "K562", "value": "11.8 µM (inactive)"}, {"measurement": "GI50", "setting": "SF-539", "value": "15.8 µM (inactive)"}, {"measurement": "GI50", "setting": "COLO 205", "value": "21.7 µM (inactive)"}, {"measurement": "GI50", "setting": "T47D", "value": "19.4 µM (inactive)"}, {"measurement": "GI50", "setting": "SR", "value": "5.27 µM (inactive)"}, {"measurement": "GI50", "setting": "Hs-578T", "value": "13.9 µM (inactive)"}, {"measurement": "GI50", "setting": "KM12", "value": "12.9 µM (inactive)"}, {"measurement": "GI50", "setting": "UACC-257", "value": "27 µM (inactive)"}, {"measurement": "GI50", "setting": "HT-29", "value": "29.5 µM (inactive)"}, {"measurement": "GI50", "setting": "M14", "value": "18.1 µM (inactive)"}, {"measurement": "GI50", "setting": "SW-620", "value": "23.4 µM (inactive)"}, {"measurement": "GI50", "setting": "OVCAR-8", "value": "20 µM (inactive)"}, {"measurement": "GI50", "setting": "MDA-MB-435", "value": "12.5 µM (inactive)"}]}
{"compound": "Nc1nc(NCc2ccccc2)cc(NCc2ccccc2)n1", "values": [{"measurement": "GI50", "setting": "SF-268", "value": "4 µM (inactive)"}, {"measurement": "GI50", "setting": "SK-OV-3", "value": "9.08 µM (inactive)"}, {"measurement": "GI50", "setting": "NCI/ADR-RES", "value": "3.23 µM (inactive)"}, {"measurement": "GI50", "setting": "UACC-62", "value": "3.67 µM (inactive)"}, {"measurement": "GI50", "setting": "A498", "value": "0.668 µM (active)"}, {"measurement": "GI50", "setting": "NCI-H226", "value": "7.5 µM (inactive)"}, {"measurement": "GI50", "setting": "K562", "value": "5.75 µM (inactive)"}, {"measurement": "GI50", "setting": "SF-539", "value": "3.45 µM (inactive)"}, {"measurement": "GI50", "setting": "COLO 205", "value": "2.97 µM (inactive)"}, {"measurement": "GI50", "setting": "T47D", "value": "4.48 µM (inactive)"}, {"measurement": "GI50", "setting": "SR", "value": "2.72 µM (inactive)"}, {"measurement": "GI50", "setting": "Hs-578T", "value": "2.86 µM (inactive)"}, {"measurement": "GI50", "setting": "KM12", "value": "4.28 µM (inactive)"}, {"measurement": "GI50", "setting": "UACC-257", "value": "5.69 µM (inactive)"}, {"measurement": "GI50", "setting": "HT-29", "value": "2.88 µM (inactive)"}, {"measurement": "GI50", "setting": "M14", "value": "10.5 µM (inactive)"}, {"measurement": "GI50", "setting": "SW-620", "value": "5.21 µM (inactive)"}, {"measurement": "GI50", "setting": "OVCAR-8", "value": "4.11 µM (inactive)"}, {"measurement": "GI50", "setting": "MDA-MB-435", "value": "2.48 µM (inactive)"}]}
